The supplement of paper PMC10307832

Key:
Assay in all cases: relative viability (nuclei count vs DMSO), 5 days (fraction); higher = more cells survive
[1] = compound: CN(C)C(=N)NC(=N)N [Metformin] + CC(C)C[C@H](NC(=O)[C@H](Cc1ccccc1)NC(=O)c1cnccn1)B(O)O [Bortezomib] (partner 0.002 µM)
Procedure, shortened: (§1)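 One day after seeding in 1536-well plates, lung cancer cell lines were dosed by pin tool. Dosing was either single-drug or a fixed anchor-drug dose plus five library-drug doses (not always all listed) in √10 steps. After 5 days, nuclei were stained in one fix-and-stain step and counted on 4× images, and relative viability is the nuclei count of treated wells over that of vehicle wells, given as the median of duplicate plates.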

[2] = compound: CN(C)C(=N)NC(=N)N [Metformin] + Nc1nc2[nH]cc(CCc3ccc(C(=O)N[C@@H](CCC(=O)O)C(=O)O)cc3)c2c(=O)[nH]1 [Pemetrexed] (partner 0.2 µM)
Procedure, shortened: as §1

[3] = compound: N#CC1(c2ccc(NC(=O)c3cccnc3NCc3ccncc3)cc2)CCCC1 [Apatinib] + N=C(N)NC(=N)NCCc1ccccc1 [Phenformin] (partner 250 µM)
Procedure, shortened: as §1

[4] = compound: CN(C)C(=N)NC(=N)N [Metformin] + CC1(C)CCC(c2ccc(Cl)cc2)=C(CN2CCN(c3ccc(C(=O)NS(=O)(=O)c4ccc(N[C@H](CCN5CCOCC5)CSc5ccccc5)c(S(=O)(=O)C(F)(F)F)c4)cc3)CC2)C1 [Navitoclax] (partner 0.5 µM)
Procedure, shortened: as §1

Cell Line	relative viability ([1]; first compound 31.62 µM)	relative viability ([1]; first compound 100 µM)	relative viability ([1]; first compound 316.23 µM)	relative viability ([1]; first compound 1000 µM)	relative viability ([2]; first compound 31.62 µM)	relative viability ([2]; first compound 100 µM)	relative viability ([2]; first compound 316.23 µM)	relative viability ([2]; first compound 1000 µM)	relative viability ([3]; first compound 0.08 µM)	relative viability ([3]; first compound 0.253 µM)	relative viability ([3]; first compound 0.8 µM)	relative viability ([3]; first compound 2.53 µM)	relative viability ([3]; first compound 8 µM)	relative viability ([4]; first compound 31.62 µM)	relative viability ([4]; first compound 100 µM)	relative viability ([4]; first compound 316.23 µM)	relative viability ([4]; first compound 1000 µM)	relative viability ([1]; first compound 10 µM)	relative viability ([2]; first compound 10 µM)	relative viability ([4]; first compound 10 µM)
LC-2-ad	1.01	0.766	0.756	0.926	0.313	0.271	0.263	0.25	0.539	0.579	0.517	0.539	0.582	0.26	0.167	0.18	0.311	–	–	–
NCI-H2085	1.05	1.01	1.09	1.16	0.815	0.904	0.881	0.955	0.707	0.715	0.752	0.65	0.656	1.12	1.05	1.07	1.11	1.1	0.917	1.08
RERF-LC-KJ	1.15	1.1	1.01	0.988	0.447	0.504	0.426	0.455	0.452	0.403	0.401	0.427	0.454	1.15	0.752	0.833	0.745	1.14	0.491	1.08
LOU-NH91	0.504	0.511	0.56	0.474	0.394	0.409	0.385	0.437	0.651	0.73	0.631	0.659	0.665	0.717	0.751	0.766	0.767	0.515	0.438	0.867
NCI-H2009	1.16	1.12	1	1.09	0.943	0.891	0.814	0.891	0.494	0.497	0.382	0.264	0.219	1.16	1.21	1.17	1.07	0.694	0.874	1.19
UMC-11	0.914	0.791	0.694	0.618	0.697	0.81	0.791	0.855	0.333	0.318	0.287	0.293	0.266	0.347	0.346	0.363	0.384	0.56	0.907	0.328
NCI-H2347	1.1	1.23	1.09	0.641	0.482	0.408	0.465	0.399	0.476	0.307	0.443	0.206	0.465	0.694	0.802	0.746	0.716	1.09	0.406	0.633
LU99A	1.06	0.988	0.903	1.04	0.212	0.157	0.168	0.164	0.914	1.01	0.816	0.799	0.813	0.743	0.677	0.814	0.749	0.96	0.152	0.693
NCI-H3122	0.97	0.921	0.863	0.886	0.171	0.197	0.184	0.222	0.351	0.361	0.319	0.271	0.298	0.955	0.969	0.933	0.89	0.824	0.178	0.937
SW 1573	1.15	0.963	1	1.36	0.817	0.668	0.725	0.743	0.485	0.426	0.376	0.397	0.387	0.835	1.11	0.994	1.1	1.19	0.728	0.878
HARA	1.07	1.19	1.13	1.18	0.28	0.327	0.301	0.28	0.424	0.455	0.391	0.28	0.298	1.1	1.2	1.02	1.16	1.2	0.323	1.13
201T	1.15	1.1	1.06	1.12	0.329	0.313	0.289	0.353	0.481	0.448	0.413	0.33	0.405	1.26	1.17	1.16	1.17	–	–	–
NCI-H838	1.14	0.926	0.957	1.23	0.266	0.278	0.266	0.271	0.716	0.686	0.521	0.507	0.518	1.23	1.21	1.15	1.22	1.02	0.28	1.19
NCI-H1734	1.06	0.947	0.951	0.917	0.418	0.461	0.456	0.455	0.401	0.481	0.381	0.342	0.353	0.863	0.908	0.822	0.905	0.952	0.49	0.882
NCI-H1915	1.01	0.985	0.961	1.02	0.438	0.404	0.379	0.435	0.377	0.353	0.334	0.354	0.326	0.794	0.702	0.749	0.806	–	–	–
BEN	1.18	0.775	0.993	0.511	1.08	0.733	0.812	0.64	0.26	0.255	0.25	0.232	0.25	0.0708	0.0914	0.0748	0.0712	1.08	1.11	0.0532
ChaGo-K-1	1.03	0.993	0.972	0.628	0.277	0.259	0.257	0.256	0.473	0.528	0.425	0.424	0.428	1.42	0.95	0.93	1.24	1.03	0.259	1
